Article PMC6104605, “Discovery of new chromen-4-one derivatives as telomerase inhibitors through regulating expression of dyskerin” (Journal of Enzyme Inhibition and Medicinal Chemistry, 2018)

How the values were obtained:
telomerase = target: T1, telomerase (Homo sapiens, UniProt O14746); assay: Telomerase activity assay (TRAP-PCR-ELISA); type: biochemical; conditions: SGC-7901 cells extracts, 24-h treatment, mean ± SD
T1 construct: endogenous in cells; host or cells: SGC-7901
Experimental: Inhibit of telomerase activity was tested using the TRAP-PCR-ELISA assay. In detail, the SGC-7901 cells were firstly maintained in DMEM medium (GIBCO, New York) supplemented with 10% fetal bovineserum (GIBCO, NewYork), streptomycin (0.1 mg/mL) and penicillin (100 IU/mL) at 37 °C in a humidified atmosphere containing 5% CO2. After trypsinisation, 5 × 10^4 cultured cells in logarithmic growth were seeded into T25 flasks (Corning, New York) and cultured to allow to adherence. The cells were then incubated with Staurosporine (Santa Cruz, Santa Cruz) and the drugs with a series of concentration as 60, 20, 6.67, 2.22, 0.74, 0.25 and 0.082 l g/mL, respectively. After 24-h treatment, the cells were harvested by cell scraper orderly following by washed once with PBS. The cells were lysed in 150 µL RIPA cell lysis buffer (Santa Cruz, Santa Cruz) and incubated on ice for 30 min. The cellular supernatants were obtained via centrifugation at 12,000 g for 20 min at 4 °C and stored at −80 °C. The TRAP-PCR-ELISA assay was performed using a telomerase detection kit (Roche, Basel, Switzerland) according to the manufacturer’s protocol. In brief, 2 µL of cell extracts were mixed with 48 µL TRAP reaction mixtures. PCR was then initiated at 94 °C, 120 s for predenaturation and performed using 35 cycles each consisting of 94 °C for 30 s, 50 °C for 30 s, 72 °C for 90 s. Then 20 µL of PCR products were hybridised to a digoxigenin (DIG)-labeled telomeric repeat specific detection probe. And the PCR products were immobilised via the biotin-labeled primer to a streptavidin-coated microtiter plate subsequently. The immobilised DNA fragment were detected with a peroxidase-conjugated anti-DIG antibody and visualised following addition of the stop regent. The microtitre plate was assessed on TECAN Infinite M200 microplate reader (Mannedorf, Switzerland) at a wavelength of 490 nm, and the final value were presented as mean ± SD.

[1] = test system: human normal gastric mucosa cell (GES-1); assay: Proliferative inhibition of human normal cell (MTT); type: cell-based; conditions: GES1; MTT, human normal gastric mucosa cell; read-out: GES-1 IC50
Description: In order to determine the selective cell toxicity of selected compounds. We subsequently conducted a proliferative inhibition assay with human normal gastric mucosa cell (GES-1).

dyskerin = assay: Western blot, dyskerin; type: cell-based, human; conditions: SGC-7901, 1, 2 and 4 μM, 48 h
Experimental: (§1) An equivalent volume of 5 × SDS-sample buffer was added to cell lysates and boiled for 10 min. The supernatants were subjected to electrophoresis on SDS-PAGE gels and transferred to PVDF membrane by using a Bio-Rad apparatus. Membranes were blocked for 3 h at room temperature in TBST containing 5% non-fat dried milk and probed overnight at 4 °C with antibodies. CyclinD1 (abcam, ab134175, 1:10000), CDC25A (abcam, ab156574, 1:1000), CDC25C (abcam, ab32051, 1:1000), bcl-2 (abcam, ab32124,1:1000), bax (abcam, ab32503, 1:1000), PARP (abcam, ab191217, 1:1000), γH2AX (abcam, ab81299, 1:5000), dyskerin (abcam, ab156877, 1:1000), NHP2 (abcam, ab180498, 1:1000), NOP10 (abcam, ab133726, 1:1000) antibody was performed with rabbit primary antibody. Otherwise, β-actin (ZSGB-BIO, 1:1000) detection was performed with mouse primary antibody which was served as internal controls. Protein bands of β-actin was visualised using peroxidase-labeled goat anti-mouse and others were visualised using peroxidase-labeled goat anti-rabbit secondary antibody (1:5000 dilution, 1 h, room temperature), and the protein expression signals were detected by the BeyoECL Plus (Beyotime).

human glioma cell U87 = assay: MTT anticancer assay, U87; type: cell-based; conditions: 48 h exposure, mean ± SD, dash = footnote d 'None'
Experimental: (§2) The MTT was purchased from Sigma. Cell Cycle Analysis Kit and Apoptosis Analysis Kit were purchased from Bestbio (China). Mitochondrial membrane potential assay kit with JC-1 was purchased from Beyotime (China). All the materials were used as received without further purification unless noted specifically. The cell culture was maintained on DMEM medium (Hyclone, US) supplemented with 10% fetal bovine serum (Sijiqing, China), 100 U/mL penicillin and 100 µg/mL streptomycin in 25-cm^2 culture flasks at 37 °C humidified atmosphere with 5% CO2. Drugs were dissolved in DMSO and filtered through 0.22-µm pore-size filter units before addition to cell line appropriate media. When tumor cells were grown to log phase, diluting to 5 × 10^4 cells mL^−1 with the complete medium, 100 µL of the obtained cell suspension was added to each well of 96-well culture plates. The subsequent incubation was performed at 37 °C, 5% CO2 atmosphere for 48 h before subjecting to anti-proliferation assessment. After 48-h exposure period, 20 µL of PBS containing 5 mg·mL^−1 of MTT was added to each well. After 4 h, the medium was replaced by 150 µL DMSO to dissolve the purple formazan crystals produced. The absorbance at 492 nm of each well was measured on an ELISA plate reader. The data represented the mean of three experiments in triplicate and were expressed as means ± SD. The IC50 value was defined as the concentration at which 50% of the cells could survive. The following human tumor cell lines were used in the assay: human gastric cancer cells SGC-7901, human liver cancer cell SMMC-7721 and HepG2, human cervical cancer cell Hela and human glioma cell U87.

[2] = test system: human liver cancer cell HepG2; assay: MTT anticancer assay, HepG2; type: cell-based; conditions: 48 h exposure, mean ± SD, dash = footnote d 'None'
Experimental: as §2

SGC-7901 cells = assay: Annexin V-FITC/PI apoptosis analysis by flow cytometry; type: cell-based, human; conditions: 48 h, control 3.06%
Experimental: Apoptosis was detected by flow cytometric analysis of annexin V staining. Annexin V-FITC/PI assay was performed according to previously described. First, adherent SGC-7901 cells were harvested and suspended in the annexin-binding buffer (1 × 10^6 cells/mL). Then, cells were incubated with V-FITC buffer and incubated with annexin V-FITC for 15 min and then stained by PI for 5 min at 4 °C in the dark, immediately analyzed by flow cytometry. The data are presented as biparametric dot plots showing PI red fluorescence versus annexin V-FITC green fluorescence.

CDC25A = assay: Western blot, CDC25A; type: cell-based, human; conditions: SGC-7901, 1, 2 and 4 μM, 48 h
Experimental: as §1

γH2AX = assay: Western blot, γH2AX; type: cell-based, human; conditions: SGC-7901, 1, 2 and 4 μM, 48 h
Experimental: as §1

PARP = assay: Western blot, PARP; type: cell-based, human; conditions: SGC-7901, 1, 2 and 4 μM, 48 h
Experimental: as §1

T1 sequence (O14746 whole entry): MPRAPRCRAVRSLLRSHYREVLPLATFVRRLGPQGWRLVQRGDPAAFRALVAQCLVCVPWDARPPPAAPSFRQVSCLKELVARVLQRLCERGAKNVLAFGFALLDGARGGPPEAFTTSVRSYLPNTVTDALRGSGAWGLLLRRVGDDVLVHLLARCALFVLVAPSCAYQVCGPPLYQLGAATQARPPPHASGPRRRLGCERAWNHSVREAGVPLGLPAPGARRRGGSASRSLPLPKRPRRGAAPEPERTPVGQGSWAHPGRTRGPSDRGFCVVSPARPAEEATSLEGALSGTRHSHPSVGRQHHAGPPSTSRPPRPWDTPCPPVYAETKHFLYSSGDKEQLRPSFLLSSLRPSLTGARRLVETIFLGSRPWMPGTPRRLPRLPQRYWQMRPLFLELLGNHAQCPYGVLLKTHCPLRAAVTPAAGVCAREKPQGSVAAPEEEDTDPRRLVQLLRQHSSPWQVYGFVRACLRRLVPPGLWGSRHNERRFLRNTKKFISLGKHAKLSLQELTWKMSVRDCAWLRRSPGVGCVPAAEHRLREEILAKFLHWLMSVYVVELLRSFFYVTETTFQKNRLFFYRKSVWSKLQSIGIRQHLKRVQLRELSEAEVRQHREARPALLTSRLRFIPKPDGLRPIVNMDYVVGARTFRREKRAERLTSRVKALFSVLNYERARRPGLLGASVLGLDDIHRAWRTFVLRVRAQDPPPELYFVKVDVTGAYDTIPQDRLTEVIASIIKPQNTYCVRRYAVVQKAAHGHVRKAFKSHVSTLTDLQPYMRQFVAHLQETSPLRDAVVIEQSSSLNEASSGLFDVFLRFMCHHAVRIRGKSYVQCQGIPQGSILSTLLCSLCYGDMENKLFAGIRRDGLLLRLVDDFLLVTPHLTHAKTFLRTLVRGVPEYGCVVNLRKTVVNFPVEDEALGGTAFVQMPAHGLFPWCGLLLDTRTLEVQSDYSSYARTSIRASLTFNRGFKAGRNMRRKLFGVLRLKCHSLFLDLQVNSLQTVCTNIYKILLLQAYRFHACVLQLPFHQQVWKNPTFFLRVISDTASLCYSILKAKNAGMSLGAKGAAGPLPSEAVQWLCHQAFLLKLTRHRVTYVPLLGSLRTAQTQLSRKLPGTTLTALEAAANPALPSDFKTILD
T1 sequence (O60832 whole entry partner): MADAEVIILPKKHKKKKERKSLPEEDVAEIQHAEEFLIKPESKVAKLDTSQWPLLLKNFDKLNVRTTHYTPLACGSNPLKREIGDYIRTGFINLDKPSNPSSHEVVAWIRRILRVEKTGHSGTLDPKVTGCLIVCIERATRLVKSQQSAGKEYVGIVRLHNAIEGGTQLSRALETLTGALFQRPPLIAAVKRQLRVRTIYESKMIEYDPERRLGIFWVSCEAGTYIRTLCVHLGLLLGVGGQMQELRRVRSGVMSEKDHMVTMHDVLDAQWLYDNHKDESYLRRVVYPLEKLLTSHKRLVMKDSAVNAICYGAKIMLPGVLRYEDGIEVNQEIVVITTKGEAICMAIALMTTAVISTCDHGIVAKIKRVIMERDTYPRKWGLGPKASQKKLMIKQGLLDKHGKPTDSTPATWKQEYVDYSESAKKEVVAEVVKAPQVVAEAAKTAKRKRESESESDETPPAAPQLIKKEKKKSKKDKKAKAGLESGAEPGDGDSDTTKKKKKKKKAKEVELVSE
T1 sequence (Q9NX24 whole entry partner): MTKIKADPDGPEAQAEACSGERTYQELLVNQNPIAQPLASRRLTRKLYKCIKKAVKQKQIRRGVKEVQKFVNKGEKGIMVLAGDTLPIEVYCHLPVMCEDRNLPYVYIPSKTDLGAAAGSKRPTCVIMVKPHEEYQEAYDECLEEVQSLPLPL
T1 sequence (Q9NPE3 whole entry partner): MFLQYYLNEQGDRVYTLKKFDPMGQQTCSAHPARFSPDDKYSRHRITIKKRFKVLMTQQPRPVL
T1 sequence (Q9NY12 whole entry partner): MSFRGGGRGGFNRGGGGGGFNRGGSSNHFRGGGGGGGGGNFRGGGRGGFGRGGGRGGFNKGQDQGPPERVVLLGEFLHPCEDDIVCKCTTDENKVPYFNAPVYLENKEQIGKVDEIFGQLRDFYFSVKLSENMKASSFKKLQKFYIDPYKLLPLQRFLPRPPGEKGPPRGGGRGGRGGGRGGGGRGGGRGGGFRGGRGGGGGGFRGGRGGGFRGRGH

## COc1cc(OC)c2c(=O)c(OCCCCN3CCN(C(=O)c4ccncc4)CC3)c(-c3cc(OC)c(OC)c(OC)c3)oc2c1 [Compound 5i, 3-(4-(4-isonicotinoylpiperazin-1-yl)butoxy)-5,7-dimethoxy-2-(3,4,5-trimethoxyphenyl)-4H-chromen-4-one]
telomerase
  IC50: 0.89 ± 0.17 µM
[1]
  IC50: 3710 ± 330 µM
dyskerin
  protein level of dyskerin (western blot): significantly reduced
Human glioma cell U87
  IC50: 2.5 ± 0.11 µM
[2]
  IC50: 4.12 ± 0.51 µM
SGC-7901 cells; SGC-7901, 1 µM
  Apoptosis ratio: 12.47%
SGC-7901 cells; SGC-7901, 2 µM
  Apoptosis ratio: 26.3%
SGC-7901 cells; SGC-7901, 4 µM
  Apoptosis ratio: 48.7%
CDC25A
  expression of CDC25A (western blot): significantly decrease
γH2AX
  expression of γH2AX (western blot): significantly decrease
PARP
  PARP (western blot): reduced
